In patent US10179782B2, “Substituted sulfonamide compounds” (Genentech, Inc., priority 2016, dated 2019):
Where two headings read alike, the source gives them in different places.

Target: T1, human TRPA1 (Homo sapiens, UniProt O75762)
T1 construct: expressed in transfected cells; host or cells: CHO cells
Test: TRPA1 FLIPR Tetra calcium influx assay in CHO cells (block of cinnamaldehyde-induced calcium influx)
Format: cell-based
Conditions: CHO cells expressing TRPA1, agonist cinnamaldehyde 75 uM, read-out: hTRPA1 CHO Ca2+ AUC EVO (IC50)
How it was run: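 IC50s were derived from a Hill fit with n fixed at 1.5, using inhibition of FLIPR Tetra calcium signals in dye-loaded TRPA1-CHO cells. Cells sat with compound 20 min at room temperature in HBSS with 20 mM HEPES (pH 7.4) and 0.02% BSA, then were challenged with cinnamaldehyde near EC80: 75 µM human, 45 µM rat.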

[1] = Table 2, 20 min compound incubation, Hill coefficient fixed to 1.5
[2] = Table 1, with vs without substituent at R2/R3

T1 sequence (O75762 whole entry): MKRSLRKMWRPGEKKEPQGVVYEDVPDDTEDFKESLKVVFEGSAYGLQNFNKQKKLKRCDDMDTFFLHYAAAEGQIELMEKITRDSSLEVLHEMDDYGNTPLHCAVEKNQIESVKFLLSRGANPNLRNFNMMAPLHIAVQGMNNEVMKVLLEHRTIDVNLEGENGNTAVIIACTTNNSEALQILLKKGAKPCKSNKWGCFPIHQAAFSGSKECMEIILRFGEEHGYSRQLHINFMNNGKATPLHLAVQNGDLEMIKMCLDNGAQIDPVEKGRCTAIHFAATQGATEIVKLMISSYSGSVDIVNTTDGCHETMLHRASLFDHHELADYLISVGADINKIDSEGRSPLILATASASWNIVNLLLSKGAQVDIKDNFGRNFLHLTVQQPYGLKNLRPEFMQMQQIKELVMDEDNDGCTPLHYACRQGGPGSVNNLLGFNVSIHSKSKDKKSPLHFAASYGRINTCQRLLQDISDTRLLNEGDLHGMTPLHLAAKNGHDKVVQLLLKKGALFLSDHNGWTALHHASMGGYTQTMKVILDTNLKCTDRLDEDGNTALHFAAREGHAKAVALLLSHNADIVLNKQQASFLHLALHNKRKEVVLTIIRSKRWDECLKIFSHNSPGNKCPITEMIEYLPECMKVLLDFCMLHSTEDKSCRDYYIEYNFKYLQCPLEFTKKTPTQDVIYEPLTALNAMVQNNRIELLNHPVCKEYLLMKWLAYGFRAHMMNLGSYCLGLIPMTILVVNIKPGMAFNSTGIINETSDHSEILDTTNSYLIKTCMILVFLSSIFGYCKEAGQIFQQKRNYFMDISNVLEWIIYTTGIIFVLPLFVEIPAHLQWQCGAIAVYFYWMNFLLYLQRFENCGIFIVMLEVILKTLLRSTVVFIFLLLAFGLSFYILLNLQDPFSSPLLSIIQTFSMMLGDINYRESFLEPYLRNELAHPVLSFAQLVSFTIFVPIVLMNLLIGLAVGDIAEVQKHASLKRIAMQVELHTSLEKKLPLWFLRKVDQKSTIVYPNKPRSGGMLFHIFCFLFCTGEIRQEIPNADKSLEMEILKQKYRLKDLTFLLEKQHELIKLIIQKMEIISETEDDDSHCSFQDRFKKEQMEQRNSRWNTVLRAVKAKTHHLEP

Row | IC50 [1] | IC50 [2] | Compound
1 | 1200 nM |  | C[C@H]1[C@H](F)C[C@@H](C(=O)N(COP(=O)(O)O)Cc2cc(-c3cnc(C(F)(F)F)nc3)ncc2F)N1S(=O)(=O)c1ccc(F)cc1 [Example 157, Sodium ((2S,4R,5S)-4-fluoro-N-((5-fluoro-2-(2-(trifluoromethyl)pyrimidin-5-yl)pyridin-4-yl)methyl)-1-((4-fluorophenyl)sulfonyl)-5-methylpyrrolidine-2-carboxamido)methyl phosphate]
2 | 2.31 nM |  | C[C@H]1[C@H](F)C[C@@H](C(=O)NCc2cc(-c3cnc(C(F)(F)F)nc3)ncc2C(F)(F)F)N1S(=O)(=O)c1cncc(F)c1 [Example 159, (2S,4R,5S)-4-fluoro-1-[(5-fluoro-3-pyridyl)sulfonyl]-5-methyl-N-[[5-(trifluoromethyl)-2-[2-(trifluoromethyl)pyrimidin-5-yl]-4-pyridyl]methyl]pyrrolidine-2-carboxamide]
3 | 7.27 nM |  | C[C@H]1[C@H](F)C[C@@H](C(=O)NCc2cc(-c3cnc(C(F)(F)F)nc3)ncc2C(F)(F)F)N1S(=O)(=O)c1ccc(C#N)nc1 [Example 160, (2S,4R,5S)-1-[(6-cyano-3-pyridyl)sulfonyl]-4-fluoro-5-methyl-N-[[5-(trifluoromethyl)-2-[2-(trifluoromethyl)pyrimidin-5-yl]-4-pyridyl]methyl]pyrrolidine-2-carboxamide]
4 | 1.96 nM |  | C[C@H]1[C@H](F)C[C@@H](C(=O)NCc2cc(-c3cnc(C(F)(F)F)nc3)ncc2C(F)(F)F)N1S(=O)(=O)c1ccc(Cl)nc1 [Example 161, (2S,4R,5S)-1-[(6-chloro-3-pyridyl)sulfonyl]-4-fluoro-5-methyl-N-[[5-(trifluoromethyl)-2-[2-(trifluoromethyl)pyrimidin-5-yl]-4-pyridyl]methyl]pyrrolidine-2-carboxamide]
5 | 2.34 nM |  | C[C@H]1[C@H](F)C[C@@H](C(=O)NCc2cc(-c3cnc(C(F)(F)F)nc3)cnc2C(F)F)N1S(=O)(=O)c1ccc(F)cc1 [Example 162, (2S,4R,5S)-N-[[2-(difluoromethyl)-5-[2-(trifluoromethyl)pyrimidin-5-yl]-3-pyridyl]methyl]-4-fluoro-1-(4-fluorophenyl)sulfonyl-5-methyl-pyrrolidine-2-carboxamide]
6 |  | 2.01 nM | C[C@H]1[C@H](F)C[C@@H](C(=O)NCc2cc(-c3cnc(C(F)(F)F)nc3)ncc2F)N1S(=O)(=O)c1ccc(F)cc1 [drawing 600, (2S,4R,5S)-4-fluoro-1-(4-fluorophenyl)sulfonyl-N-[[5-fluoro-2-[2-(trifluoromethyl)pyrimidin-5-yl]-4-pyridyl]methyl]-5-methyl-pyrrolidine-2-carboxamide]
7 |  | 21.9 nM | C[C@H]1[C@H](F)C[C@@H](C(=O)NCc2cc(-c3cnc(C(F)(F)F)nc3)ncn2)N1S(=O)(=O)c1ccc(F)cc1 [drawing 602, (2S,4R,5S)-4-fluoro-1-(4-fluorophenyl)sulfonyl-5-methyl-N-[[6-[2-(trifluoromethyl)pyrimidin-5-yl]pyrimidin-4-yl]methyl]pyrrolidine-2-carboxamide]
8 |  | 4.31 nM | C[C@H]1[C@H](F)C[C@@H](C(=O)NCc2cc(-c3cnc(C(F)(F)F)nc3)c(Cl)cn2)N1S(=O)(=O)c1ccc(F)cc1 [drawing 604, (2S,4R,5S)-N-[[5-chloro-4-[2-(trifluoromethyl)pyrimidin-5-yl]-2-pyridyl]methyl]-4-fluoro-1-(4-fluorophenyl)sulfonyl-5-methyl-pyrrolidine-2-carboxamide]
9 |  | 19.5 nM | C[C@H]1[C@H](F)C[C@@H](C(=O)NCc2ccnc(-c3cnc(C(F)(F)F)nc3)c2)N1S(=O)(=O)c1ccc(F)cc1 [drawing 606, (2S,4R,5S)-4-fluoro-1-(4-fluorophenyl)sulfonyl-5-methyl-N-[[2-[2-(trifluoromethyl)pyrimidin-5-yl]-4-pyridyl]methyl]pyrrolidine-2-carboxamide]
